{"source": "patent US20100099756A1", "about": "“USES OF INCENSOLE, INCENSOLE ACETATE AND DERIVATIVES THEREOF” (YISSUM RESEARCH DEVELOPMENT COMPANY OF THE HEBREW …, priority 2006, published 2010)", "system": "locomotion and cataleptic response", "assay": "Open field test and ring test", "format": "in vivo, female Sabra mice", "conditions": "i.p., Sabra mice", "method": "To study the functional effects of IA on the CNS, IA was assayed in a panel of standard behavioral assays in mice (female Sabra strain, 15-20 weeks old), namely: the elevated plus maze [Crawley, J. N. What's Wrong with my Mouse? Behavioral Phenotyping of Transgenic and Knockout Mice (Wiley-Liss, New York, 2000)], the Porsolt forced-swimming test [Petit-Demouliere, B., Chenu, F. & Bourin, M. Forced swimming test in mice: a review of antidepressant activity. Psychopharmacology 177, 245-255 (2005)], locomotion in the open field test and cataleptic response in a ring test [Fride, E. & Mechoulam, R. Pharmacological activity of the cannabinoid receptor agonist, anandamide, a brain constituent. Eur. J. Pharmacol. 231, 313-314 (1993). The elevated plus maze assay is based on the preference of mice for the closed arms of a maze, apparently due to fear of open spaces.", "data": [{"compound": "CC(=O)OC1CC/C(C)=C/CC/C(C)=C/CC2(C(C)C)CCC1(C)O2", "note": "(centres unmarked) [IA, incensole acetate]", "values": [{"measurement": "immobility on a ring", "result": "impaired immobility on a ring"}, {"measurement": "open field behavior", "result": "significant reduction of open field behavior"}]}]}
